Test results as given in patent publication US11696913B2, “Prolonged ectoparasite-controlling agent for animal” (MITSUI CHEMICALS AGRO, INC., priority 2017, dated 2023).

Key:
Plutella xylostella = assay: Insecticidal testing against diamondback moth; assay type: in vivo; settings: foliar, 144 h, concentration 100 ppm, cabbage leaf dip, third-stage larvae, after 6 days, read-out: pesticidal rate
Description: Insecticidal Testing Against Diamondback Moth (Plutella xylostella)

Laodelphax striatellus = assay: Insecticidal testing against small brown planthopper; assay type: in vivo; settings: 144 h, concentration 100 ppm, sprayed rice seedlings, after 6 days, read-out: pesticidal rate
Procedure: Insecticidal Testing Against Small Brown Planthopper (Laodelphax striatellus)
An additional test was carried out with 10 small brown planthoppers by preparing an acetone solution of the testing compound diluted to a predetermined concentration, spraying the solution onto rice seedlings and air drying the rice seedlings. The medicament was all used as received. The rice seedlings were placed in a constant-temperature room at 25° C., and the survival rate was investigated after 6 days. The test was carried out by means of one group of 10 pests.

Dermacentor variabilis = assay: In vitro contact test with adult hard ticks (Dermacentor variabilis); settings: read-out: acaricidal activity; for pest or weed control at 0.2 µg/cm2, 0.2 µg/cm2: dose 0.2 μg/cm^2, 48 h; for pest or weed control at 1 µg/cm2, 1 µg/cm2: dose 1 μg/cm^2, 48 h
Procedure, shortened: (§1)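 Adult R. sanguineus, I. ricinus, D. variabilis or A. americanum nymphs exposed in glass vials coated with compound from acetone (900 ppm gives 5 μg/cm^2). Held 48 h at room temperature (R. sanguineus) or 21° C., 85% rel. hum.; then heated at 45-50° C. ≤5 min, motionless or uncoordinated ticks scored dead/moribund.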

[1] = system: Rhipicephalus (Boophilus) microplus; assay: In vitro injection test with Rhipicephalus (Boophilus) microplus (BOOPMI Inj); settings: 168 h, laid fertile eggs after 7 days, read-out: acaricidal activity; for pest or weed control at 32 ng: dose 0.032 μg/animal injected; for pest or weed control at 0.00016 mg: dose 0.16 μg/animal injected; for pest or weed control at 0.0008 mg: dose 0.8 μg/animal injected
Procedure, shortened: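 Test substance in DMSO; 1 μl injected into abdomen of each of 5 engorged adult female ticks, then held at 28° C., 85% rel. hum. Activity scored after 7 days from laying of fertile eggs: 100% = no eggs or all infertile, 0% = all eggs fertile.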

Spodoptera litura = assay: Insecticidal testing against common cutworm; assay type: in vivo; settings: foliar, 144 h, concentration 100 ppm, cabbage leaf dip, second-stage larvae, after 6 days, read-out: pesticidal rate
Description: Insecticidal Testing Against Common Cutworm (Spodoptera litura)

Ctenocephalides felis [2] = assay: In vitro contact test with fleas; settings: read-out: insecticidal activity; for pest or weed control at 0.04 µg/cm2, 0.04 µg/cm2: dose 0.04 μg/cm^2, dead or moribund fleas after 48 h; for pest or weed control at 0.2 µg/cm2, 0.2 µg/cm2: dose 0.2 μg/cm^2, dead or moribund fleas after 48 h; for pest or weed control at 1 µg/cm2, 1 µg/cm2: dose 1 μg/cm^2, dead or moribund fleas after 48 h
Procedure, shortened: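 Adult male and female cat fleas (5-10 per tube) placed in glass tubes coated with compound from acetone solution (900 ppm gives 5 μg/cm^2), kept at room temperature and ambient humidity. After 48 h, motionless or uncoordinated fleas scored dead or moribund; activity expressed as % dead or moribund.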

Ctenocephalides felis [3] = assay: Ctenocephalides felis in-vitro feeding test with fleas (CTECFE oral); settings: 48 hours, read-out: insecticidal feeding activity; for pest or weed control at 0.032 ppm: dose 0.032 ppm in citrated cattle blood; for pest or weed control at 0.16 ppm: dose 0.16 ppm in citrated cattle blood; for pest or weed control at 0.8 ppm: dose 0.8 ppm in citrated cattle blood; for pest or weed control at 4 ppm: dose 4 ppm in citrated cattle blood
Procedure, shortened: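 About 20 unfed adult cat fleas fed through parafilm on citrated cattle blood containing test substance (DMSO solution diluted in blood), held at about 37° C. Kill rate scored after 48 hours, 100% meaning all fleas dead.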

Rhipicephalus sanguineus = assay: In vitro contact test with adult hard ticks (Rhipicephalus sanguineus); settings: read-out: acaricidal activity; for pest or weed control at 0.2 µg/cm2, 0.2 µg/cm2: dose 0.2 μg/cm^2, 48 h; for pest or weed control at 1 µg/cm2, 1 µg/cm2: dose 1 μg/cm^2, 48 h
Procedure, shortened: as §1

Amblyomma americanum = assay: In vitro contact test with hard ticks (Amblyomma americanum nymphs); settings: read-out: acaricidal activity; for pest or weed control at 1 µg/cm2, 1 µg/cm2: dose 1 μg/cm^2, 48 h; for pest or weed control at 0.2 µg/cm2, 0.2 µg/cm2: dose 0.2 μg/cm^2, 48 h
Procedure, shortened: as §1

SMILES	pest or weed control at 100 ppm (Plutella xylostella) [%]	pest or weed control at 100 ppm (Laodelphax striatellus) [%]	pest or weed control at 0.2 µg/cm2, 0.2 µg/cm2 (Dermacentor variabilis) [%]	pest or weed control at 1 µg/cm2, 1 µg/cm2 (Dermacentor variabilis) [%]	pest or weed control at 32 ng [1] [%]	pest or weed control at 0.00016 mg [1] [%]	pest or weed control at 0.0008 mg [1] [%]	pest or weed control at 100 ppm (Spodoptera litura) [%]	pest or weed control at 0.04 µg/cm2, 0.04 µg/cm2 (Ctenocephalides felis [2]) [%]	pest or weed control at 0.2 µg/cm2, 0.2 µg/cm2 (Ctenocephalides felis [2]) [%]	pest or weed control at 1 µg/cm2, 1 µg/cm2 (Ctenocephalides felis [2]) [%]	pest or weed control at 0.032 ppm (Ctenocephalides felis [3]) [%]	pest or weed control at 0.16 ppm (Ctenocephalides felis [3]) [%]	pest or weed control at 0.8 ppm (Ctenocephalides felis [3]) [%]	pest or weed control at 4 ppm (Ctenocephalides felis [3]) [%]	pest or weed control at 0.2 µg/cm2, 0.2 µg/cm2 (Rhipicephalus sanguineus) [%]	pest or weed control at 1 µg/cm2, 1 µg/cm2 (Rhipicephalus sanguineus) [%]	pest or weed control at 1 µg/cm2, 1 µg/cm2 (Amblyomma americanum) [%]	pest or weed control at 0.2 µg/cm2, 0.2 µg/cm2 (Amblyomma americanum) [%]
CN(C(=O)c1ccc([N+](=O)[O-])cc1)c1cccc(C(=O)Nc2c(I)cc(C(F)(C(F)(F)F)C(F)(F)F)cc2C(F)(F)F)c1F [Compound 54]	≥ 70	≥ 70	90	90	100	100	100	≥ 70	95	95	95	95	95	95	95	90	90		
CN(C(=O)c1ccc(C(F)(F)F)cc1)c1cccc(C(=O)Nc2c(I)cc(C(F)(C(F)(F)F)C(F)(F)F)cc2C(F)(F)F)c1F [Compound 59]	≥ 70	≥ 70			100	100	100	≥ 70		95	95		95	95	95	90	90	90	
CN(C(=O)c1ccc(Cl)c(Cl)c1)c1cccc(C(=O)Nc2c(I)cc(C(F)(C(F)(F)F)C(F)(F)C(F)(F)F)cc2C(F)(F)F)c1F (stereo not shown) [Compound 75]	≥ 70	≥ 70				100	100	≥ 70		95	95			95	95	90	90	90	
CN(C(=O)c1ccc(F)cc1)c1cccc(C(=O)Nc2c(I)cc(C(F)(C(F)(F)F)C(F)(F)F)cc2[S+]([O-])C(F)(F)F)c1F (stereo not shown) [Compound 69]	≥ 70	≥ 70				100	100	≥ 70		95	95	95	95	95	95	90	90	90	90
Cc1ccc(C(=O)N(C)c2cccc(C(=O)Nc3c(I)cc(C(F)(C(F)(F)F)C(F)(F)F)cc3C(F)(F)F)c2F)cc1 [Compound 58]	≥ 70	≥ 70			100	100	100	≥ 70	95	95	95			95	95		90	90	90
CN(C(=O)c1ccc(Cl)c(Cl)c1)c1cccc(C(=O)Nc2c(I)cc(C(F)(C(F)(F)F)C(F)(F)F)cc2C(F)(F)F)c1F [Compound 44]	≥ 70	≥ 70	90	90		100	100	≥ 70		95	95		95	95	95	90	90		
CN(C(=O)c1ccc(C(F)(F)F)nc1)c1cccc(C(=O)Nc2c(I)cc(C(F)(C(F)(F)F)C(F)(F)F)cc2OC(F)F)c1F [Compound 107]	≥ 70	≥ 70	90	90	100	100	100	≥ 70	95	95	95	95	95	95	95	90			
CN(C(=O)c1ccc(C#N)cc1)c1cccc(C(=O)Nc2c(Br)cc(C(F)(C(F)(F)F)C(F)(F)F)cc2OC(F)(F)F)c1F [Compound 88]	≥ 70	≥ 70	90	90	100	100	100	≥ 70		95	95	95	95	95	95	90	90		
